The results in this text go back to patent publication US10975119B2, “Selective cysteine protease inhibitors and uses thereof” (Genesis Technologies Limited, priority 2011, dated 2021).

“Also recorded” adds a separate entry of the source. Like-named read-outs stand apart in the source and are kept apart here.

In general, inhibition refers to how much of the control response was suppressed. One may read the IC50 as the concentration at which inhibition is half-maximal.

Common to all, as to type: biochemical
Experiment [1] addresses T1, Caspase-5 (Homo sapiens, UniProt P51878).
T1 construct: mixing the compounds with the respective active caspases; purchased BioVision K155-100
T1 sequence (P51878 137-327 limits assumed): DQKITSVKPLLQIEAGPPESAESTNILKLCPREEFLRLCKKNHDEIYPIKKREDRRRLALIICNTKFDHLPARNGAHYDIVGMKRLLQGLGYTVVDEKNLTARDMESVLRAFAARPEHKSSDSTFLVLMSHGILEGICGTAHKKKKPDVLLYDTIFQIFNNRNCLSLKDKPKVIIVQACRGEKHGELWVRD
T1 sequence (P51878 347-434 limits assumed): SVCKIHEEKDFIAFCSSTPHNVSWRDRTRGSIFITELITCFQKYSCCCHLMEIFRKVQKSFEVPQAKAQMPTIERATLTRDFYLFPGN
As to the kind of experiment: Caspase-5 inhibitor screening assay (BioVision kit, WEHD-AFC). The following applies: for inhibition at 10 µM: read-out: % Inhibition at 10 uM Casp5; for inhibition at 100 µM: read-out: % Inhibition at 100 uM Casp5. The gist of the method:
(§1)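 Each caspase cleaved its own AFC-labelled peptide substrate, and released AFC was read by fluorescence. % inhibition came from RFU against an uninhibited control.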

For experiment [2], the target named is T2, Caspase-6 (Homo sapiens, UniProt P55212).
T2 construct: mixing the compounds with the respective active caspases; purchased BioVision K156-100
T2 sequence (P55212 24-179 limits assumed): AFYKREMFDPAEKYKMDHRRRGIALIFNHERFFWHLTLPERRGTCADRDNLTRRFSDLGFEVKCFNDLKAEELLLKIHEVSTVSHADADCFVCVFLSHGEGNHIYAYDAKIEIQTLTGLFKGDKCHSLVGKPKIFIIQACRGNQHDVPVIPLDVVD
T2 sequence (P55212 194-293 limits assumed): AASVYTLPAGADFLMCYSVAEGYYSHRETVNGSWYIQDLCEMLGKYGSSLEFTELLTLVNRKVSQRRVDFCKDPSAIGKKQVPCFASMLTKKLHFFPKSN
The experiment can be described thus: Caspase-6 inhibitor screening assay (BioVision kit, VEID-AFC). The conditions noted are these: for inhibition at 10 µM: read-out: % Inhibition at 10 uM Casp6; for inhibition at 100 µM: read-out: % Inhibition at 100 uM Casp6. The gist of the method:
as §1

The target in experiment [3] is T3, Caspase-10 (Homo sapiens, UniProt Q92851).
T3 construct: mixing the compounds with the respective active caspases; purchased BioVision K160-100
T3 sequence (Q92851 220-415 limits assumed): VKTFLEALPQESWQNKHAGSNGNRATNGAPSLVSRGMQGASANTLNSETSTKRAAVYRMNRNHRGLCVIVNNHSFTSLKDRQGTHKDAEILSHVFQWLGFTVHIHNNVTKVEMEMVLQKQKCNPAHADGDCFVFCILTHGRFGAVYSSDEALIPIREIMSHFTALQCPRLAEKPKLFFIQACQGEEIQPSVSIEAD
T3 sequence (Q92851 416-521 limits assumed): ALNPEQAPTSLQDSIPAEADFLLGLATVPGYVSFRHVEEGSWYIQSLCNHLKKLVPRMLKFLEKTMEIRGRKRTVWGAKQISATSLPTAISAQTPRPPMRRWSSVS
As to the kind of experiment: Caspase-10 inhibitor screening assay (BioVision kit, AEVD-AFC). The conditions noted are these: for inhibition at 10 µM: read-out: % Inhibition at 10 uM Casp10; for inhibition at 100 µM: read-out: % Inhibition at 100 uM Casp10. The gist of the method:
as §1

For experiment [4], the system named is Caspases 1 through 10. As to the kind of experiment: Caspase-1 to Caspase-10 inhibitor screening, profile across the panel. Here is the method:
The efficacy of an array of compounds as an inhibitor of the activity of Caspases 1 through 10 were assessed by using the respective Caspase Inhibitor Drug Screening Kits (Caspase-1 Catalog #: K151-100, Caspase-2 Catalog #: K152-100, Caspase-3 Catalog #: K153-100, Caspase-4 Catalog #: K154-100, Caspase-5 Catalog #: K155-100, Caspase-6 Catalog #: K156-100, Caspase-7 Catalog #: K157-100, Caspase-8 Catalog #: K158-100, Caspase-9 Catalog #: K159-100, Caspase-10 Catalog #: K160-100, BioVision) following the instructions of the manufacturer. […] Active caspases cleaved their respective synthetic substrates to release free AFC, which was then quantified by fluorometry.
Briefly, the compounds were first tested at 2 concentrations (10 uM and 100 uM final) to determine if there is a hit. […] Each condition was tested in duplicates. […] For some samples, a smaller range of concentrations was tested depending on the % Inhibition results at 10 uM and 100 uM. Results were summarized in Tables 2, 3, and 4 herein after. Table 2 represents the IC50 values (uM) of the test compounds as inhibitors of the activity of the various caspases.
(*) RFU (no inhibitor control)—RFU (compound at a specific concentration)
RFU (no inhibitor control)

Experiment [5] deals with T4, Caspase-4 (Homo sapiens, UniProt P49662).
T4 construct: mixing the compounds with the respective active caspases; purchased BioVision K154-100
T4 sequence (P49662 81-270 limits assumed): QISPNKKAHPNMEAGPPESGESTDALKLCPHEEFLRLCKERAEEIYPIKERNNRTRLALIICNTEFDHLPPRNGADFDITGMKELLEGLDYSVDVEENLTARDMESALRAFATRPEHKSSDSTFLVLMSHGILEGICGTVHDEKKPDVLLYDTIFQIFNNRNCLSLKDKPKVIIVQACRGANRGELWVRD
T4 sequence (P49662 290-377 limits assumed): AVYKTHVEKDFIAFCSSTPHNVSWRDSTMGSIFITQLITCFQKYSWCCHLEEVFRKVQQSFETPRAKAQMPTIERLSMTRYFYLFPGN
The experiment can be described thus: Caspase-4 inhibitor screening assay (BioVision kit, LEVD-AFC). The conditions noted are these: for inhibition at 10 µM: read-out: % Inhibition at 10 uM Casp4; for inhibition at 100 µM: read-out: % Inhibition at 100 uM Casp4. The method in brief: as §1

The mark [6] stands for this setting: read-out: potency (IC50) against caspase-10.

With `CC(C)(C)[C@H](NC(=O)[C@H](CC(=O)O)NC(=O)OCc1ccccc1)C(=O)N1CCCC1C(=O)N[C@H](/C=C/S(C)(=O)=O)CC(=O)O` (stereo in doubt) [Compound 26, Z-Asp-t-Leu-Pro-Asp-methyl vinyl sulfone], the inhibition at 10 µM was 50% in experiment [1], 0% in experiment [2], 99% in experiment [3] and 88% in experiment [5]. For the same molecule, the inhibition at 100 µM in experiment [1] is 91%; in experiment [2] it was 7%; in experiment [3], 100%; in experiment [5] it was 100%. Further, the IC50 in experiment [1] (read-out: IC50 Casp5) is 9880 nM; in experiment [2] (read-out: IC50 Casp6) it was > 100000 nM; in experiment [3] (read-out: IC50 Casp10), 160 nM; in experiment [3] (setting [6]), 161 nM; in experiment [5] (read-out: IC50 Casp4), 3270 nM. The “inhibition profile across caspases, in words” value in experiment [4] is “high inhibitory activity towards the effector (executioner) Caspases: Caspase-3 and -7”.
Consider `CC(C)(C)[C@H](NC(=O)c1ccc2ccccc2n1)C(=O)N1CCC[C@@H]1C(=O)N[C@H](/C=C/S(C)(=O)=O)CC(=O)O` [Compound 6, 2-Quinoline carbonyl-t-Leu-pro-Asp methyl vinyl sulfone], for which the inhibition at 10 µM worked out at 86% in experiment [1], 0% in experiment [2], 3% in experiment [3] and 99% in experiment [5]. The inhibition at 100 µM turned out to be 99% in experiment [1], 3% in experiment [2], 74% in experiment [3] and 100% in experiment [5]. The IC50 in experiment [1] (read-out: potency (IC50) against caspase-5) was 2320 nM; in experiment [2] (read-out: IC50 Casp6) it was > 100000 nM; in experiment [3] (read-out: IC50 Casp10) it was 56000 nM; in experiment [5] (read-out: IC50 Casp4), 1550 nM; in experiment [5] (read-out: potency (IC50) against caspase-4), 1550 nM. For the same molecule, in experiment [4], the “inhibition profile across caspases, in words” value is “inhibits selectively caspase-1; also recorded: very strong inhibitory activity towards pro-inflammatory Caspases”.
`CCOC(=O)/C=C/[C@H](CC(=O)O)NC(=O)[C@@H](NC(=O)[C@@H](NC(=O)[C@H](CC(=O)O)NC(=O)OCc1ccccc1)c1ccccc1)C(C)C` [Compound 105, Z-Asp-Phg-Val-Asp Ethyl Vinyl Ester]: the inhibition at 10 µM in experiment [1] was 41%; in experiment [2], 13%; in experiment [3] it was 96%; in experiment [5] it was 100%. For the same molecule, the inhibition at 100 µM in experiment [1] was 41%; in experiment [2], 10%; in experiment [3] it was 99%; in experiment [5] it was 98%. In addition, the IC50 in experiment [3] (read-out: IC50 Casp10) stood at 590 nM; in experiment [3] (setting [6]), 592 nM; in experiment [5] (read-out: IC50 Casp4), 510 nM. Further, in experiment [4], the “inhibition profile across caspases, in words” value is “high inhibitory activity towards the effector (executioner) Caspases: Caspase-3 and -7”.
`CCOC(=O)/C=C/[C@H](CC(=O)O)NC(=O)[C@H]1CCCN1C(=O)[C@@H](NC(=O)c1ccc(N)c(Cl)c1)C(C)(C)C` [Compound 116, (4-amino-3-chlorobenzene carbonyl)-t-Leu-Pro-Asp Ethyl vinyl ester]: the IC50 is 130 nM in experiment [1] (read-out: IC50 Casp5), > 100000 nM in experiment [2] (read-out: IC50 Casp6), 550 nM in experiment [3] (read-out: IC50 Casp10) and 30 nM in experiment [5] (read-out: IC50 Casp4). The “inhibition profile across caspases, in words” value in experiment [4] was “stronger inhibitory activity towards pro-inflammatory caspases Caspase-1 and -5”.
With `CCOC(=O)/C=C/[C@H](CC(=O)O)NC(=O)[C@H]1CCCN1C(=O)[C@@H](NC(=O)c1ccc2ccccc2n1)C(C)(C)C` [Compound 118, 2-Quinoline carbonyl-t-Leu-Pro-Asp Ethyl Vinyl Ester], the inhibition at 10 µM in experiment [1] came to 88%; in experiment [2], 3%; in experiment [3], 59%; in experiment [5], 100%. Further, the inhibition at 100 µM is 99% in experiment [1], 6% in experiment [2], 97% in experiment [3] and 100% in experiment [5]. In addition, the IC50 in experiment [1] (read-out: IC50 Casp5) is 1950 nM; in experiment [2] (read-out: IC50 Casp6), > 100000 nM; in experiment [3] (read-out: IC50 Casp10), 8050 nM; in experiment [5] (read-out: IC50 Casp4), 600 nM. The “inhibition profile across caspases, in words” value in experiment [4] is on record as “very strong inhibitory activity towards pro-inflammatory Caspases”.
For `CCOC(=O)/C=C/[C@H](CC(=O)O)NC(=O)[C@@H](NC(=O)[C@H](CCC(=O)O)NC(=O)[C@@H](NC(=O)OCc1ccccc1)C(C)C)C(C)CC` (stereo partly drawn) [Compound 124, Z-Val-Glu-Ile-Asp-Ethyl Vinyl ester], the IC50 in experiment [1] (read-out: IC50 Casp5) amounted to 3770 nM; in experiment [2] (read-out: IC50 Casp6) it was 290 nM; in experiment [2] (read-out: inhibition (IC50) against Caspase-6) it was 293 nM; in experiment [3] (read-out: IC50 Casp10) it was 30 nM; in experiment [5] (read-out: IC50 Casp4), 1270 nM. Moreover, the “inhibition profile across caspases, in words” value in experiment [4] is “pan-caspase inhibitor”.
